Results published in the kinase profiling compilation of Christmann-Franck et al. (2016).

Legend:
Assay in all cases: split-luciferase competition binding
RPS6KA3 KD1 (human) = RPS6KA3 KD1 (human) (UniProt P51812); conditions: compound 10.0 µM
RPS6KA5 KD1 (human) = RPS6KA5 KD1 (human) (UniProt O75582); conditions: compound 10.0 µM
PRKCD (human) = PRKCD (human) (UniProt Q05655); conditions: compound 10.0 µM
AURKA (human) = AURKA (human) (UniProt O14965); conditions: compound 10.0 µM
PKN1 (human) = PKN1 (human) (UniProt Q16512); conditions: compound 10.0 µM
STK32B (human) = STK32B (human) (UniProt Q9NY57); conditions: compound 10.0 µM
PRKCE (human) = PRKCE (human) (UniProt Q02156); conditions: compound 10.0 µM
AURKB (human) = AURKB (human) (UniProt Q96GD4); conditions: compound 10.0 µM
AKT2 (human) = AKT2 (human) (UniProt P31751); conditions: compound 10.0 µM
AKT3 (human) = AKT3 (human) (UniProt Q9Y243); conditions: compound 10.0 µM
RPS6KA6 KD1 (human) = RPS6KA6 KD1 (human) (UniProt Q9UK32); conditions: compound 10.0 µM
RPS6KA4 KD1 (human) = RPS6KA4 KD1 (human) (UniProt O75676); conditions: compound 10.0 µM
AURKC (human) = AURKC (human) (UniProt Q9UQB9); conditions: compound 10.0 µM
SGK2 (human) = SGK2 (human) (UniProt Q9HBY8); conditions: compound 10.0 µM
PRKACB (human) = PRKACB (human) (UniProt P22694); conditions: compound 10.0 µM
PRKCH (human) = PRKCH (human) (UniProt P24723); conditions: compound 10.0 µM
AKT1 (human) = AKT1 (human) (UniProt P31749); conditions: compound 10.0 µM
PRKX (human) = PRKX (human) (UniProt P51817); conditions: compound 10.0 µM
PDPK1 (human) = PDPK1 (human) (UniProt O15530); conditions: compound 10.0 µM
PRKCQ (human) = PRKCQ (human) (UniProt Q04759); conditions: compound 10.0 µM
PRKCG (human) = PRKCG (human) (UniProt P05129); conditions: compound 10.0 µM
PRKCI (human) = PRKCI (human) (UniProt P41743); conditions: compound 10.0 µM
PRKACA (mouse) = conditions: compound 10.0 µM; accession and sequence are those of the human protein
RPS6KA1 KD1 (human) = RPS6KA1 KD1 (human) (UniProt Q15418); conditions: compound 10.0 µM
RPS6KA2 KD1 (human) = RPS6KA2 KD1 (human) (UniProt Q15349); conditions: compound 10.0 µM
SGK3 (human) = SGK3 (human) (UniProt Q96BR1); conditions: compound 10.0 µM
DMPK (human) = DMPK (human) (UniProt Q09013); conditions: compound 10.0 µM

Sequence of PRKCI (human) (P41743 whole entry, looked up): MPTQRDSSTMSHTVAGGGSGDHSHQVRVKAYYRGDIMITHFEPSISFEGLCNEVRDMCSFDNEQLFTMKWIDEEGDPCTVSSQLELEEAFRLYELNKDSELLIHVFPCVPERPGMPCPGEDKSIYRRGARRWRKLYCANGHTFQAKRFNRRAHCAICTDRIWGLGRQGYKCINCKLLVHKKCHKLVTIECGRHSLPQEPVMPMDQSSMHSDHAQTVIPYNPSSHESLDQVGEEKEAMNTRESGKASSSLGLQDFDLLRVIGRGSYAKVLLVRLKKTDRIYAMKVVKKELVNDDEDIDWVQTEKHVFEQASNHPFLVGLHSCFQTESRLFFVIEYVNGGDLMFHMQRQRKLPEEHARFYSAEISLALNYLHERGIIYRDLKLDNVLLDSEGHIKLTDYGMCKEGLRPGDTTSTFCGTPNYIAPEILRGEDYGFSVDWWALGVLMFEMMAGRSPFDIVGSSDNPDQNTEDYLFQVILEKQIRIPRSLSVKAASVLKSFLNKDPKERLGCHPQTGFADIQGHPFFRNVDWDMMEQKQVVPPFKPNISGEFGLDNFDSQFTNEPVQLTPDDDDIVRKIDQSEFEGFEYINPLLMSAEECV
Sequence of AURKA (human) (O14965 whole entry, looked up): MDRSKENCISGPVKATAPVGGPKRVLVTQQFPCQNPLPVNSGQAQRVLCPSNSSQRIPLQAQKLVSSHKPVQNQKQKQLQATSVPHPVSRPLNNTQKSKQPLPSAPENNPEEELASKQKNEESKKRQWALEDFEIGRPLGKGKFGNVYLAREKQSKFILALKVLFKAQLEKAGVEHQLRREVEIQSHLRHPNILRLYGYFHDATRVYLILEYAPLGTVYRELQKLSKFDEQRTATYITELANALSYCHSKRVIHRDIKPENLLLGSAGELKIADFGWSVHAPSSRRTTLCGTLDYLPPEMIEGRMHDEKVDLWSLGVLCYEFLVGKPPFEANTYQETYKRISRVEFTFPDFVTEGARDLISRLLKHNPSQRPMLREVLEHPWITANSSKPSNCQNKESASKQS
Sequence of PKN1 (human) (Q16512 whole entry, looked up): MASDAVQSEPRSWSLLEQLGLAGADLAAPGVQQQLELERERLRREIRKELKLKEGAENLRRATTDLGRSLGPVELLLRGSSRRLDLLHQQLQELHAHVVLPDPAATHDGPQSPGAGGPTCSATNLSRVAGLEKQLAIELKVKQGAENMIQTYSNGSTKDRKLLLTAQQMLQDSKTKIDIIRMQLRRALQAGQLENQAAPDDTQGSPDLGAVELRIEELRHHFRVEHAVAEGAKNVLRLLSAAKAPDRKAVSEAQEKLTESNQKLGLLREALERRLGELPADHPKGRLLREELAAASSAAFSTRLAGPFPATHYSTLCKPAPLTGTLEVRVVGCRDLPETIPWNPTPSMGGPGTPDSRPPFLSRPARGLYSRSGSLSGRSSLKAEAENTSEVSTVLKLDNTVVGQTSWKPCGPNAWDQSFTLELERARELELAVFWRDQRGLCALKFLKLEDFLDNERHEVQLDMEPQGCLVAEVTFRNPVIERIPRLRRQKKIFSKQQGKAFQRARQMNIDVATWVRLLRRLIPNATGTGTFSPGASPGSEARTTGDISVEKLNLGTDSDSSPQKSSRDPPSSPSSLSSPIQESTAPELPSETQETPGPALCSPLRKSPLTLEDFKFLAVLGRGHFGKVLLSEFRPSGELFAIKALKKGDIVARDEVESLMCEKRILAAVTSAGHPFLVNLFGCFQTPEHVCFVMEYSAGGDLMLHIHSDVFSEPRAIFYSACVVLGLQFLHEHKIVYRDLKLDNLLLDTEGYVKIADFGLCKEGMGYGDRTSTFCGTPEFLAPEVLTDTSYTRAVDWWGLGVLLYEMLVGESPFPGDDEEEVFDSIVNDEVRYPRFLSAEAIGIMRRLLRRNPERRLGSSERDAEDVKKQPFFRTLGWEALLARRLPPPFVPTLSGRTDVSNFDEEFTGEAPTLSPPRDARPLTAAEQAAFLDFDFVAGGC
Sequence of AKT2 (human) (P31751 whole entry, looked up): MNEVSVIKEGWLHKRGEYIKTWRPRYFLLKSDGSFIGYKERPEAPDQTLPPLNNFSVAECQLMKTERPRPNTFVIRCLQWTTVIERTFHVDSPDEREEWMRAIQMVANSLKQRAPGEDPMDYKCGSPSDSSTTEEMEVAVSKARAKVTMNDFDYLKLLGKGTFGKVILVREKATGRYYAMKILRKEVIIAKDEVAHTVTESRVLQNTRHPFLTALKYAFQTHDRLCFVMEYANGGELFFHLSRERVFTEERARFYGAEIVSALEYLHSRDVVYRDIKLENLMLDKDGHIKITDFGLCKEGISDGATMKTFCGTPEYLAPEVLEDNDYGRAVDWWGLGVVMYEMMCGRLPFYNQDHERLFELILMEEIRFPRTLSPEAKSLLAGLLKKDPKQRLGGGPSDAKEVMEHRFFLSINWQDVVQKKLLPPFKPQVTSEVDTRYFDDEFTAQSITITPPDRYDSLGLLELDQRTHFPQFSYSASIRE
Sequence of AURKC (human) (Q9UQB9 whole entry, looked up): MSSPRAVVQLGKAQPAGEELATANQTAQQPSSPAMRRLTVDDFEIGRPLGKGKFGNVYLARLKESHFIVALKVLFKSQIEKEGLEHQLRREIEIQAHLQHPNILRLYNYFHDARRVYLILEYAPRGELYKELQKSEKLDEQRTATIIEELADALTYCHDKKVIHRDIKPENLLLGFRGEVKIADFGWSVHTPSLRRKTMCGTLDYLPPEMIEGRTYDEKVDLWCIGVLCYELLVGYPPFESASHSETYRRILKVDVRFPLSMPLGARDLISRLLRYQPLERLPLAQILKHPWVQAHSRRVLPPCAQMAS
Sequence of RPS6KA1 KD1 (human) (Q15418 whole entry, looked up): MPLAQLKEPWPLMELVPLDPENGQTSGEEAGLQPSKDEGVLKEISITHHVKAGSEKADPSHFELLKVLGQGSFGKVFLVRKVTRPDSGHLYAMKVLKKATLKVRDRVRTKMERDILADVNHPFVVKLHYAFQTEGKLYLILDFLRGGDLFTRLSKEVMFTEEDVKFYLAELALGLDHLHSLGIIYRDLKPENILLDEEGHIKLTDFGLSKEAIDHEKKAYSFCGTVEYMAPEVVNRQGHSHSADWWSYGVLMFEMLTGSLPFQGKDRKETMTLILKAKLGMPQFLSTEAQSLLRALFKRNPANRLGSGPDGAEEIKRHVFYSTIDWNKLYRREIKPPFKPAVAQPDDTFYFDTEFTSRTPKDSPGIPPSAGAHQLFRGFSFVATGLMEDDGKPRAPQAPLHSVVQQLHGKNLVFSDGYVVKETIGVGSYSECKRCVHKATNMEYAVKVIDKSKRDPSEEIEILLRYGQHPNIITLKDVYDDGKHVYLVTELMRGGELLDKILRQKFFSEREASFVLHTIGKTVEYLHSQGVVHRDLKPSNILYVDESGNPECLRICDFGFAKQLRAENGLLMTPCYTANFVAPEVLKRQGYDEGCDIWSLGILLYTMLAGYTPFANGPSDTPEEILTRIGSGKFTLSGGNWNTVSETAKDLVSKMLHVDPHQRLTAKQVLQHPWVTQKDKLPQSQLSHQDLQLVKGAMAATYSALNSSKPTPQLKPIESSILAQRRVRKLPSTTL
Sequence of AKT3 (human) (Q9Y243 whole entry, looked up): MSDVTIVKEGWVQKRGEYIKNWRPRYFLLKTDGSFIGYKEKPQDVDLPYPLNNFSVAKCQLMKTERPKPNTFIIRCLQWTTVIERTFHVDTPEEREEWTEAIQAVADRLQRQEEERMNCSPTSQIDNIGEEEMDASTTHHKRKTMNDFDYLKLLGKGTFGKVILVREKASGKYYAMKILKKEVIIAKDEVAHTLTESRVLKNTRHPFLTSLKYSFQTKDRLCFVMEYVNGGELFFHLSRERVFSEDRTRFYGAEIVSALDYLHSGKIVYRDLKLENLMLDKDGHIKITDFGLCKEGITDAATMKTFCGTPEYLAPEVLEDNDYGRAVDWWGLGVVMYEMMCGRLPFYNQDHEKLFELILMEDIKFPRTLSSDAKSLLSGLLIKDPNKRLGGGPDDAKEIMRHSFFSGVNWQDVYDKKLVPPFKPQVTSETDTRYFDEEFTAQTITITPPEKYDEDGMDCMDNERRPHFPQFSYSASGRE
Sequence of STK32B (human) (Q9NY57 whole entry, looked up): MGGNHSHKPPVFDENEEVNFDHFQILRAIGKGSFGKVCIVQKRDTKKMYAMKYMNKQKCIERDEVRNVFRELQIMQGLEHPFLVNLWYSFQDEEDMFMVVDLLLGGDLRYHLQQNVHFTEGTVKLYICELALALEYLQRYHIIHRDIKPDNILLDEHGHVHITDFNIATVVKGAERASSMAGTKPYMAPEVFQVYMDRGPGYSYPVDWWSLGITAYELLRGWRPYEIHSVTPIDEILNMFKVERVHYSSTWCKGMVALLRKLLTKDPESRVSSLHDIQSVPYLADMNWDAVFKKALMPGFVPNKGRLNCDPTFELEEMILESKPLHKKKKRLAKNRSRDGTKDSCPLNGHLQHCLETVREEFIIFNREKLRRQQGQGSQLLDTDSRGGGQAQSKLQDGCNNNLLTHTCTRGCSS
Sequence of AKT1 (human) (P31749 whole entry, looked up): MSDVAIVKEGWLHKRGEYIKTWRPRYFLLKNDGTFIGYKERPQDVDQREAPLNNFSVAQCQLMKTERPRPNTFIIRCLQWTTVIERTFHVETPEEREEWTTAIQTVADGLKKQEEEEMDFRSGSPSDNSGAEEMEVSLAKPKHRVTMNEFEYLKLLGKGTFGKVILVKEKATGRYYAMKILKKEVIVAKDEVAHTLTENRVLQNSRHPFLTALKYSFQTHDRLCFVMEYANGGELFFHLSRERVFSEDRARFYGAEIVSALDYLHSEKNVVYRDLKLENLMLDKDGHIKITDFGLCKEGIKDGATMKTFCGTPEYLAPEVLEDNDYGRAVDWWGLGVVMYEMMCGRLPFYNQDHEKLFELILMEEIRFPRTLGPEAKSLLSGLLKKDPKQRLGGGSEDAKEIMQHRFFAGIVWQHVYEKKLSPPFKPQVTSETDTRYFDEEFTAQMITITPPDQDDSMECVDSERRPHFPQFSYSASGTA

| inhibition (RPS6KA3 KD1 (human)) | inhibition (RPS6KA5 KD1 (human)) | inhibition (PRKCD (human)) | inhibition (AURKA (human)) | inhibition (PKN1 (human)) | inhibition (STK32B (human)) | inhibition (PRKCE (human)) | inhibition (AURKB (human)) | inhibition (AKT2 (human)) | inhibition (AKT3 (human)) | inhibition (RPS6KA6 KD1 (human)) | inhibition (RPS6KA4 KD1 (human)) | inhibition (AURKC (human)) | inhibition (SGK2 (human)) | inhibition (PRKACB (human)) | inhibition (PRKCH (human)) | inhibition (AKT1 (human)) | inhibition (PRKX (human)) | inhibition (PDPK1 (human)) | inhibition (PRKCQ (human)) | Structure (SMILES) | other results |
| --- | --- | --- | --- | --- | --- | --- | --- | --- | --- | --- | --- | --- | --- | --- | --- | --- | --- | --- | --- | --- | --- |
| 0% | 0% | 1% | 0% | 6% | 0% | 0% | 1% | 0% | 0% | 0% | 0% | 0% | 0% | 0% | 0% | 0% | 11% | 0% | 0% | N#C/C(=C(/N)Sc1ccc(N)cc1)c1ccccc1C(F)(F)F | inhibition (PRKCG (human)): 0%; inhibition (PRKCI (human)): 0%; inhibition (PRKACA (mouse)): 2%; inhibition (RPS6KA1 KD1 (human)): 0%; inhibition (RPS6KA2 KD1 (human)): 0%; inhibition (SGK3 (human)): 4%; inhibition (DMPK (human)): 0% |
| 7% | 0% | 0% | 1% | 0% | 0% | 19% | 56% | 0% | 0% | 37% | 16% | 31% | 0% | 0% | 56% | 0% | 9% | 0% | 18% | NC(=O)Nc1sc(-c2ccc(F)cc2)cc1C(N)=O | inhibition (PRKCG (human)): 0%; inhibition (PRKCI (human)): 0%; inhibition (PRKACA (mouse)): 4%; inhibition (RPS6KA1 KD1 (human)): 44%; inhibition (RPS6KA2 KD1 (human)): 20%; inhibition (SGK3 (human)): 0%; inhibition (DMPK (human)): 0% |
| 0% | 0% | 2% | 0% | 0% | 0% | 0% | 0% | 0% | 0% | 0% | 0% | 10% | 0% | 0% | 0% | 0% | 0% | 0% | 0% | N#C/C(=C\c1ccc(O)c(O)c1)C(=O)NCc1ccccc1 | inhibition (PRKCG (human)): 0%; inhibition (PRKCI (human)): 0%; inhibition (PRKACA (mouse)): 3%; inhibition (RPS6KA1 KD1 (human)): 0%; inhibition (RPS6KA2 KD1 (human)): 0%; inhibition (SGK3 (human)): 0%; inhibition (DMPK (human)): 0% |

Continued, compound first:

| Structure (SMILES) | inhibition (RPS6KA3 KD1 (human)) | inhibition (RPS6KA5 KD1 (human)) | inhibition (PRKCD (human)) | inhibition (AURKA (human)) | inhibition (PKN1 (human)) | inhibition (STK32B (human)) | inhibition (PRKCE (human)) | inhibition (AURKB (human)) | inhibition (AKT2 (human)) | inhibition (AKT3 (human)) | inhibition (RPS6KA6 KD1 (human)) | inhibition (RPS6KA4 KD1 (human)) | inhibition (AURKC (human)) | inhibition (SGK2 (human)) | inhibition (PRKACB (human)) | inhibition (PRKCH (human)) | inhibition (AKT1 (human)) | inhibition (PRKX (human)) | inhibition (PDPK1 (human)) | inhibition (PRKCQ (human)) | other results |
| --- | --- | --- | --- | --- | --- | --- | --- | --- | --- | --- | --- | --- | --- | --- | --- | --- | --- | --- | --- | --- | --- |
| COc1cc2ncnc(Nc3ccc(F)c(Cl)c3)c2cc1OCCCN1CCOCC1 | 0% | 0% | 0% | 0% | 0% | 0% | 7% | 27% | 0% | 0% | 0% | 0% | 19% | 0% | 0% | 0% | 0% | 7% | 2% | 2% | inhibition (PRKCG (human)): 9%; inhibition (PRKCI (human)): 0%; inhibition (PRKACA (mouse)): 1%; inhibition (RPS6KA1 KD1 (human)): 0%; inhibition (RPS6KA2 KD1 (human)): 0%; inhibition (SGK3 (human)): 3%; inhibition (DMPK (human)): 13% |
| Cc1cc(I)ccc1Nc1c(C(=O)NOCC2CC2)cc(F)c(F)c1F | 0% | 0% | 0% | 0% | 0% | 0% | 9% | 4% | 0% | 0% | 0% | 0% | 0% | 0% | 0% | 0% | 0% | 6% | 0% | 1% | inhibition (PRKCG (human)): 12%; inhibition (PRKCI (human)): 0%; inhibition (PRKACA (mouse)): 0%; inhibition (RPS6KA1 KD1 (human)): 6%; inhibition (RPS6KA2 KD1 (human)): 0%; inhibition (SGK3 (human)): 2%; inhibition (DMPK (human)): 20% |
| CC(=O)c1c(O)c(C)c(O)c(Cc2c(O)c3c(c(C(=O)/C=C/c4ccccc4)c2O)OC(C)(C)C=C3)c1O | 4% | 0% | 6% | 5% | 0% | 23% | 14% | 10% | 0% | 0% | 13% | 0% | 8% | 20% | 22% | 0% | 24% | 16% | 0% | 9% | inhibition (PRKCG (human)): 26%; inhibition (PRKCI (human)): 0%; inhibition (PRKACA (mouse)): 16%; inhibition (RPS6KA1 KD1 (human)): 0%; inhibition (RPS6KA2 KD1 (human)): 9%; inhibition (SGK3 (human)): 0%; inhibition (DMPK (human)): 23% |
